Laboratory results: BindingDB's records for patent US20230382911 (Hoffmann-La Roche, 2023)

Target: S-adenosylmethionine synthase isoform type-2 (Homo sapiens, UniProt P31153)
Test: Measurement of Mat2A inhibition is performed in 384 well format absorbance-based assay
Method: Recombinant human Mat2a (12.5 nM) and serial diluted compounds in DMSO (range of concentrations from 10 μM to […]) or controls (DMSO) are incubated for 15 minutes at room temperature (RT) in assay buffer containing 50 mM HEPES pH 7.5, 50 mM KCl, 50 mM MgCl2, 0.01% Tween 20 and 10 mM DTT. The reaction is initiated by the addition of the combined substrates ATP and Methionine, each at a final concentration of 100 μM. Final assay condition are 12.5 nM Mat2A, 100 μM ATP and Methionine Substrates and 2% DMSO. After 120 minutes of incubation at RT, the reaction is stopped by the addition of Biomol Green. The absorbance signal is measured at λ=635 nm with a multiplate reader (BMG Pherastar reader or equivalent) after 30 min of equilibration at RT.

S-adenosylmethionine synthase isoform type-2, sequence (P31153 whole entry, canonical isoform): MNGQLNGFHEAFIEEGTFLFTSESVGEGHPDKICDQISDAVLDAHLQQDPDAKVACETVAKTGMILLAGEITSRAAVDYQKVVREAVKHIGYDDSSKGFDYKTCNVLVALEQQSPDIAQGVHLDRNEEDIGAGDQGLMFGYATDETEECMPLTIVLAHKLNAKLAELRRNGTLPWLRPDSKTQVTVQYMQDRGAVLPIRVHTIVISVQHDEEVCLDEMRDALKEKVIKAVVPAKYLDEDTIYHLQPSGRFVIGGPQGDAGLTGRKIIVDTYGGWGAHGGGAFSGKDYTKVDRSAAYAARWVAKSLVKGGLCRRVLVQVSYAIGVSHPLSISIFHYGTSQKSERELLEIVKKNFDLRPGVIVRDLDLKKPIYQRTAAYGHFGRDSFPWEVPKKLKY

IC50 [nM]	Compound
13	COc1ccccc1C(=O)n1nc(N)c2ccc([C@H]3[C@H](C)[C@@H]3C)nc21 [US20230382911, Example 44]
66	COc1ccccc1C(=O)n1nc(N)c2cc(F)c(N3CCCC3)nc21 [US20230382911, Example 11]
35	Cc1ccccc1C(=O)n1nc(N)c2ccc([C@H]3[C@H](C)[C@@H]3C)nc21 [US20230382911, Example 43]
